The target in one assay is human IDO (Homo sapiens, UniProt P14902). Nature of the assay: Cell based IDO/kynurenine assay in IDO-293-T-Rex cells. Particulars: kynurenine production, read-out: hIDO EC50. On the procedure: 293-T-REx™ cells (Invitrogen) constitutively express a tet operator binding repressor protein and are maintained in DMEM, 10% FBS, 1× Penicillin+Streptomycin, 2 mM L-glutamine, 5 μg/mL blasticidin at 37° C. with a 5% CO2 in air atmosphere and typically split prior to confluency. Cells were passed by splitting the culture 1/10—by removing media by aspiration, washing 1× with PBS, incubating with 0.25% trypsin/EDTA until the cells detach, disbursing the cells in fresh growth media, and plating at 1/10 dilutions in fresh growth media. For long term cryopreservation, cells are detached from the plate as described above, collected by centrifugation, resuspended in freeze medium (growth medium, 10% DMSO), stored in 1.8 mL cyropreservation vials (˜2−5×10^6 cells per vial), in liquid nitrogen vapor storage tanks.
IDOl-expressing 293-T-Rex™ cell lines were generated by stable transfection of plasmid pcDNA-tetO-IDO expressing human IDO or murine IDO under the control of the doxycycline-inducible CMV-tet promoter. Transfected cells were selected in DBZ medium (DMEM, 10% FBS, 1× Penicillin+Streptomycin, 2 mM L-glutamine, 5 μg/mL blasticidin and 25 μg/ml Zeocin) at 37° C. with a 5% CO2 in air atmosphere. Individual clones were isolated by limiting dilution cloning from these populations.
[…]. The cells incubated in Neutral medium serve as negative control of the assay. The cells incubated in Induction medium and without inhibitor serve as the positive control of the assay. The incubation is carried out for 16 h at 37° C. in a cell culture incubator. 200 μL of medium are transferred to U-bottom polypropylene 96-well plates containing 25 μL of 30% TCA, incubated 30 minutes at 60° C. and centrifuged at 3400 g for 5 minutes. 150 μL of the clear supernatant is transferred to a polystyrene 96-well plate containing 50 μL of 4% (w/v) of p-dimethylaminobenzaldehyde in acetic acid, incubated for 10 min. Kynurenine concentration is determined by measuring the absorbance at 480 nm.
The conditions of the assay were as described in the examples.

The target of assay [1] is purified human IDO protein (Homo sapiens, UniProt P14902). In words: Enzymatic IDO assay (kynurenine production, absorbance 480 nm). Particulars: enzymatic activity.
[2] abbreviates: 293T cell line stably expressing human IDO, values reported in ranges.
The mark [3] stands for this setting: hIDO IC50, recombinant human IDO, values reported in ranges.
[4] abbreviates: read-out: hIDO IC50, recombinant human IDO, values reported in ranges.
The mark [5] stands for this setting: Table 15, 293T cells expressing human IDO.
The mark [6] stands for this setting: hIDO IC50, Table 15, recombinant human IDO.

Where two headings read alike, the source gives them in different places.

Chain of human IDO (P14902 whole entry): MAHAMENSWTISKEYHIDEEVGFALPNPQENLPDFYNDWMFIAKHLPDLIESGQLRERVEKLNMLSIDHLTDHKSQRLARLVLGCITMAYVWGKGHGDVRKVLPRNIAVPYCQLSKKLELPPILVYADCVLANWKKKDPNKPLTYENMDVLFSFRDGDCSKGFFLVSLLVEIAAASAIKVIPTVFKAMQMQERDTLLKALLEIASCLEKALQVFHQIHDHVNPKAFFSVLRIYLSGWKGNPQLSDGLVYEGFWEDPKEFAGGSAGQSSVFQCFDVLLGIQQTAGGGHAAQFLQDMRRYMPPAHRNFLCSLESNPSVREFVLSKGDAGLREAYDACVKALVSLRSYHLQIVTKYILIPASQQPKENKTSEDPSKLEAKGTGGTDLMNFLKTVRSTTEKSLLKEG
Chain of purified human IDO protein (P14902 whole entry P110S/E119G): as the sequence (P14902 whole entry) above, with P110S, E119G counted along it

With `Oc1cc(O)nc(SCc2ccccc2)n1` [compound 222, 2-(benzylthio)pyrimidine-4,6-diol], on human IDO (setting [2]), the EC50 (in general, the midpoint of the concentration-response curve) fell in the range of 20 to 100 µM. Moreover, the IC50 (as a rule, the concentration at which inhibition is half-maximal) in assay [1] (setting [3]) is 100 to 1000 µM.
Taken in the same sequence, the figures for `CSC(=S)NCCc1ccc(C)cc1C` [compound 66, Methyl 2,4-dimethylphenethylcarbamodithioate] were 100 to 1000 µM and 100 to 1000 µM.
Taken in the same sequence, the figures for `Nc1ccccc1NC(=O)CCCc1c[nH]c2ccccc12` [compound 588, N-(2-aminophenyl)-4-(1H-indol-3-yl)butanamide] were 100 to 1000 µM and 100 to 1000 µM.
Taken in the same sequence, the figures for `C=CCOc1ccc(CC)c(OCC=C)c1` [compound 252, 2,4-bis(allyloxy)-1-ethylbenzene] were 20 to 100 µM and 100 to 1000 µM.
For the molecule `COc1cccc(CCSC(=S)NCCc2c[nH]c3ccccc23)c1` [compound 10, 3-methoxyphenethyl 2-(1H-indol-3-yl)ethylcarbamodithioate], the EC50 at human IDO (setting [2]) fell in the range of 100 to 1000 µM. Further, the IC50 in assay [1] (setting [3]) is 100 to 1000 µM.
For the molecule `S=C(NCCc1c[nH]c2ccccc12)SCCc1ccc(Br)cc1` [compound 4, 4-Bromophenethyl 2-(1H-indol-3-yl)ethylcarbamodithioate], at human IDO (setting [2]), the EC50 was 20 to 100 µM. Further, in assay [1] (setting [3]), the IC50 was 100 to 1000 µM.
For the molecule `S=C(NCCc1c[nH]c2ccccc12)SCCc1ccccc1` [compound 1, Phenethyl 2-(1H-indol-3-yl)ethylcarbamodithioate], the EC50 on human IDO (setting [2]) is 100 to 1000 µM. The IC50 in assay [1] (setting [3]) was 100 to 1000 µM.
Regarding `Fc1ccccc1CCSC(=S)NCCc1c[nH]c2ccccc12` [compound 12, 2-fluorophenethyl 2-(1H-indol-3-yl)ethylcarbamodithioate], the EC50 at human IDO (setting [2]) lay within 100 to 1000 µM. For the same molecule, the IC50 in assay [1] (setting [3]) was 100 to 1000 µM.
With `NC(=O)C(=O)NNc1ccccc1` [compound 312, 2-oxo-2-(2-phenylhydrazinyl)acetamide], on human IDO (setting [2]), the EC50 is below 20 µM. In addition, the IC50 in assay [1] (setting [3]) is below 20 µM.
`S=C(NC1CSc2ccccc2C1)SCc1ccc2ccccc2c1` (centres unmarked) [compound 64, naphhalen-2-ylmethyl thiochroman-3-ylcarbamodithioate]: the EC50 at human IDO (setting [2]) was 20 to 100 µM. Also, in assay [1] (setting [4]), the IC50 was 100 to 1000 µM.
For the molecule `NOCc1cc(Cl)ccc1-c1ccsc1` [compound 1932, O-(5-chloro-2-(thiophen-3-yl)benzyl)hydroxylamine], the EC50 on human IDO (setting [5]) was below 10 µM. Moreover, the IC50 in assay [1] (setting [6]) is below 10 µM.
On to `Oc1ccccc1C(=S)NCc1ccc2ccccc2c1` [compound 607, 2-hydroxy-N-(naphthalen-2-ylmethyl)benzothioamide], for which, on human IDO (setting [2]), the EC50 lay in the range of 20 to 100 µM. Besides, the IC50 in assay [1] (setting [3]) fell in the range of 20 to 100 µM.
For `S=C(NCCc1c[nH]c2ccccc12)SCCc1c[nH]c2ccccc12` [compound 30, 2-(1H-Indol-3-yl)ethyl 2-(1H-indol-3-yl)ethylcarbamodithioate], the 50% effective concentration (EC50) on human IDO (setting [2]) was in the range of 20 to 100 µM. Moreover, in assay [1] (setting [3]), the IC50 was 100 to 1000 µM.
For `CSC(=S)NCCc1c[nH]c2cc(C(F)(F)F)cc(C(F)(F)F)c12` [compound 44], the EC50 on human IDO (setting [2]) was 1000 to 10000 µM. Besides, in assay [1] (setting [4]), the IC50 lay in the range of 100 to 1000 µM.
The corresponding values for `S=C(NCCc1noc2ccccc12)SCc1ccc2ccccc2c1` [compound 58] are 20 to 100 µM and 100 to 1000 µM.
Take `O=C(Cc1csc(=S)[nH]1)NCc1c[nH]c2ccccc12` [compound 561, N-((1H-indol-3-yl)methyl)-2-(2-thioxo-2,3-dihydrothiazol-4-yl)acetamide]: the EC50 on human IDO (setting [2]) was in the range of 20 to 100 µM. The IC50 in assay [1] (setting [3]) lay in the range of 100 to 1000 µM.
Taken in the same sequence, the figures for `Nc1cc(S(=O)O)c2cccnc2c1O` [compound 309, 7-amino-8-hydroxyquinoline-5-sulfinic acid] were 100 to 1000 µM and 20 to 100 µM.
As for `COC(=O)c1ccc(-c2ccc(Cl)cc2CON)cc1` [compound 1935, methyl 2′-(aminooxymethyl)-4′-chlorobiphenyl-4-carboxylate], on human IDO (setting [5]), the EC50 was below 10 µM. Moreover, the IC50 in assay [1] (setting [6]) is below 10 µM.
With `NOC(COc1ccccc1)c1ccccc1` (centres unmarked) [compound 1937, O-(2-phenoxy-1-phenylethyl)hydroxylamine], the EC50 at human IDO (setting [5]) is below 10 µM. Moreover, in assay [1] (setting [6]), the IC50 was below 10 µM.
Take `Oc1ccccc1C(=S)NCc1ccccc1` [compound 656, N-Benzyl-2-hydroxybenzothioamide]: on human IDO (setting [2]), the EC50 fell in the range of 20 to 100 µM. Further, the IC50 in assay [1] (setting [3]) fell in the range of 100 to 1000 µM.
Regarding `NOCc1cc(Cl)ccc1-c1ccc2[nH]ccc2c1` [compound 1930, O-(5-chloro-2-(1H-indol-5-yl)benzyl)hydroxylamine], the EC50 at human IDO (setting [5]) was below 10 µM. In addition, the IC50 in assay [1] (setting [6]) is below 10 µM.
Consider `O=C1C(CSC(=S)Nc2ccccc2)NC(=S)N1c1ccccc1` (centres unmarked) [compound 151, (5-oxo-1-phenyl-2-thioxoimidazolidin-4-yl)methyl phenylcarbamodithioate], for which the EC50 on human IDO (setting [2]) is 100 to 1000 µM. The IC50 in assay [1] (setting [3]) lay in the range of 100 to 1000 µM.
Regarding `NOCc1cc(Cl)ccc1-c1cccs1` [compound 1931, O-(5-chloro-2-(thiophen-2-yl)benzyl)hydroxylamine], the EC50 at human IDO (setting [5]) was below 10 µM. Besides, the IC50 in assay [1] (setting [6]) was below 10 µM.
Regarding `CN(C)c1ccc(-c2ccc(Cl)cc2CON)cc1` [compound 1934, 2′-(aminooxymethyl)-4′-chloro-N,N-dimethylbiphenyl-4-amine], the 50% effective concentration (EC50) on human IDO (setting [5]) was below 10 µM. In addition, in assay [1] (setting [6]), the half-maximal inhibitory concentration (IC50) is below 10 µM.
In the case of `COc1ccc(CCSC(=S)NCCc2c[nH]c3ccccc23)cc1` [compound 2, 4-Methoxyphenethyl 2-(1H-indol-3-yl)ethylcarbamodithioate], at human IDO (setting [2]), the EC50 lay in the range of 100 to 1000 µM. The IC50 in assay [1] (setting [3]) is 100 to 1000 µM.
As to `O=C1C=Cc2ccccc2C1=O` [compound 167, naphthalene-1,2-dione], the EC50 on human IDO (setting [2]) is 20 to 100 µM. Also, the IC50 in assay [1] (setting [3]) is below 20 µM.
Taken in the same sequence, the figures for `S=C1NC(c2ccccc2)NC(c2ccccc2)S1` (centres unmarked) [compound 152, 4,6-diphenyl-1,3,5-thiadiazinane-2-thione] were 20 to 100 µM and 20 to 100 µM.
Consider `O=C1C=C(O)C(=O)c2nc(O)ccc21` [compound 320, 2,7-dihydroxyquinoline-5,8-dione], for which the EC50 on human IDO (setting [2]) is 1000 to 10000 µM. Moreover, the IC50 in assay [1] (setting [3]) was below 20 µM.
`S=C(NCCc1c[nH]c2ccccc12)SCc1ccc2c(c1)OCO2` [compound 50, Benzo[d][1,3]dioxol-5-ylmethyl 2-(1H-indol-3-yl)ethylcarbamodithioate]: the EC50 at human IDO (setting [2]) lay within 20 to 100 µM. Also, the IC50 in assay [1] (setting [3]) is 20 to 100 µM.
As for `CSC(=S)NCCCCCCc1c[nH]c2ccccc12` [compound 27, Methyl 6-(1H-indol-3-yl)hexylcarbamodithioate], at human IDO (setting [2]), the EC50 fell in the range of 100 to 1000 µM. For the same molecule, in assay [1] (setting [3]), the IC50 fell in the range of 100 to 1000 µM.
Take `NOC(CCC1CCCCC1)c1ccccc1` (centres unmarked) [compound 1938, O-(3-cyclohexyl-1-phenylpropyl)hydroxylamine]: the EC50 on human IDO (setting [5]) is below 10 µM. In addition, in assay [1] (setting [6]), the IC50 is below 10 µM.
With `CC(CSC(=S)NCCc1c[nH]c2ccccc12)c1ccccc1` (centres unmarked) [compound 6, 2-Phenylpropyl 2-(1H-indol-3-yl)ethylcarbamodithioate], the EC50 at human IDO (setting [2]) was in the range of 100 to 1000 µM. Also, the IC50 in assay [1] (setting [3]) lay in the range of 100 to 1000 µM.
On to `CSC(=S)NC(C)(C)Cc1c[nH]c2ccccc12` [compound 28, Methyl 1-(1H-indol-3-yl)-2-methylpropan-2-ylcarbamodithioate], for which the EC50 at human IDO (setting [2]) fell in the range of 20 to 100 µM. Also, the IC50 in assay [1] (setting [3]) was 100 to 1000 µM.
Taken in the same sequence, the figures for `O=C1NC(=S)S/C1=C\c1ccc2c(c1)OCO2` [compound 148, (Z)-5-(benzo[d][1,3]dioxol-5-ylmethylene)-2-thioxothiazolidin-4-one] were 100 to 1000 µM and 100 to 1000 µM.

(Values after patent US20130289083A1, “IDO Inhibitors” (priority 2007, published 2013).)
